In PubChem BioAssay (NCI):
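Test compounds were applied to cells in 96-well plates for 48 hours at 5 doses. The concentration for 50% growth inhibition is given as GI50. Definition used: TGI = concentration required for complete inhibition of growth.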

Tests used:
Test in all cases: inhibition of tumour cell growth, NCI panel, 48 h
UACC-62 melanoma = system: UACC-62 melanoma
NCI-H23 lung = system: NCI-H23 lung
SF-268 CNS = system: SF-268 CNS
SW-620 colon = system: SW-620 colon
786-0 renal = system: 786-0 renal
MDA-MB-231 breast = system: MDA-MB-231 breast
SN12C renal = system: SN12C renal
A498 renal = system: A498 renal
K-562 leukemia = system: K-562 leukemia
NCI/ADR-RES ovarian = system: NCI/ADR-RES ovarian
A549 NSCLC = system: A549 NSCLC
OVCAR-4 ovarian = system: OVCAR-4 ovarian
EKVX NSCLC = system: EKVX NSCLC
M14 melanoma = system: M14 melanoma
CCRF-CEM leukemia = system: CCRF-CEM leukemia
CAKI-1 renal = system: CAKI-1 renal
SK-MEL-5 melanoma = system: SK-MEL-5 melanoma
HL-60(TB) leukemia = system: HL-60(TB) leukemia
KM12 colon = system: KM12 colon
SK-OV-3 ovarian = system: SK-OV-3 ovarian
NCI-H226 lung = system: NCI-H226 lung
T-47D breast = system: T-47D breast
BT-549 breast = system: BT-549 breast
HOP-92 NSCLC = system: HOP-92 NSCLC
MCF7 breast = system: MCF7 breast
OVCAR-3 ovarian = system: OVCAR-3 ovarian
HCT-15 colon = system: HCT-15 colon
LOX IMVI melanoma = system: LOX IMVI melanoma
NCI-H522 lung = system: NCI-H522 lung
NCI-H460 lung = system: NCI-H460 lung
IGROV1 ovarian = system: IGROV1 ovarian
RXF 393 renal = system: RXF 393 renal
OVCAR-5 ovarian = system: OVCAR-5 ovarian
SF-295 CNS = system: SF-295 CNS
UO-31 renal = system: UO-31 renal
MDA-MB-435 = system: MDA-MB-435
RPMI-8226 leukemia = system: RPMI-8226 leukemia
HT29 colon = system: HT29 colon
UACC-257 melanoma = system: UACC-257 melanoma
OVCAR-8 ovarian = system: OVCAR-8 ovarian
MALME-3M melanoma = system: MALME-3M melanoma
HCT-116 colon = system: HCT-116 colon
U251 CNS = system: U251 CNS
SK-MEL-28 melanoma = system: SK-MEL-28 melanoma
ACHN renal = system: ACHN renal
SNB-19 CNS = system: SNB-19 CNS
DU-145 prostate = system: DU-145 prostate
HCC-2998 colon = system: HCC-2998 colon
HOP-62 NSCLC = system: HOP-62 NSCLC
TK-10 renal = system: TK-10 renal
PC-3 prostate = system: PC-3 prostate
HS 578T breast = system: HS 578T breast
MOLT-4 leukemia = system: MOLT-4 leukemia
COLO 205 colon = system: COLO 205 colon
SF-539 CNS = system: SF-539 CNS
SK-MEL-2 melanoma = system: SK-MEL-2 melanoma

COc1cc2c(cc1OC)-c1c(c3ccc([N+](=O)[O-])cc3c(=O)n1CCCBr)C2=O
GI50 (UACC-62 melanoma): 2.83 µM | TGI (UACC-62 melanoma): 75.4 µM | GI50 (NCI-H23 lung): 3.32 µM | TGI (NCI-H23 lung): 67.5 µM | GI50 (SF-268 CNS): 29 µM | TGI (SF-268 CNS): > 100 µM | GI50 (SW-620 colon): 21.8 µM | TGI (SW-620 colon): > 100 µM | GI50 (786-0 renal): 2.93 µM | TGI (786-0 renal): > 100 µM | GI50 (MDA-MB-231 breast): 96.4 µM | TGI (MDA-MB-231 breast): > 100 µM | GI50 (SN12C renal): 4.31 µM | TGI (SN12C renal): > 100 µM | GI50 (A498 renal): 43.6 µM | TGI (A498 renal): > 100 µM | GI50 (K-562 leukemia): 5.2 µM | TGI (K-562 leukemia): > 100 µM | GI50 (NCI/ADR-RES ovarian): 5.91 µM | TGI (NCI/ADR-RES ovarian): > 100 µM | GI50 (A549 NSCLC): 28.9 µM | TGI (A549 NSCLC): > 100 µM | GI50 (OVCAR-4 ovarian): 34.1 µM | TGI (OVCAR-4 ovarian): > 100 µM | GI50 (EKVX NSCLC): > 100 µM | TGI (EKVX NSCLC): > 100 µM | GI50 (M14 melanoma): 2.39 µM | TGI (M14 melanoma): 26.7 µM | GI50 (CCRF-CEM leukemia): 0.425 µM | TGI (CCRF-CEM leukemia): 67.7 µM | GI50 (CAKI-1 renal): 0.513 µM | TGI (CAKI-1 renal): > 100 µM | GI50 (SK-MEL-5 melanoma): 1.72 µM | TGI (SK-MEL-5 melanoma): 23.7 µM | GI50 (HL-60(TB) leukemia): 1.31 µM | TGI (HL-60(TB) leukemia): 10.2 µM | GI50 (KM12 colon): 29.8 µM | TGI (KM12 colon): > 100 µM | GI50 (SK-OV-3 ovarian): 60.5 µM | TGI (SK-OV-3 ovarian): > 100 µM | GI50 (NCI-H226 lung): 22.7 µM | TGI (NCI-H226 lung): 85.1 µM | GI50 (T-47D breast): 0.731 µM | TGI (T-47D breast): > 100 µM | GI50 (BT-549 breast): > 100 µM | TGI (BT-549 breast): > 100 µM | GI50 (HOP-92 NSCLC): > 100 µM | TGI (HOP-92 NSCLC): > 100 µM | GI50 (MCF7 breast): 0.0985 µM | TGI (MCF7 breast): > 100 µM | GI50 (OVCAR-3 ovarian): 71.1 µM | TGI (OVCAR-3 ovarian): > 100 µM | GI50 (HCT-15 colon): 61.8 µM | TGI (HCT-15 colon): > 100 µM | GI50 (LOX IMVI melanoma): 3.9 µM | TGI (LOX IMVI melanoma): 42.4 µM | GI50 (NCI-H522 lung): 6.41 µM | TGI (NCI-H522 lung): > 100 µM | GI50 (NCI-H460 lung): 0.573 µM | TGI (NCI-H460 lung): > 100 µM | GI50 (IGROV1 ovarian): 51.8 µM | TGI (IGROV1 ovarian): > 100 µM | GI50 (RXF 393 renal): 44.3 µM | TGI (RXF 393 renal): > 100 µM | GI50 (OVCAR-5 ovarian): > 100 µM | TGI (OVCAR-5 ovarian): > 100 µM | GI50 (SF-295 CNS): 9.07 µM | TGI (SF-295 CNS): > 100 µM | GI50 (UO-31 renal): 5.23 µM | TGI (UO-31 renal): > 100 µM | GI50 (MDA-MB-435): 25.4 µM | TGI (MDA-MB-435): > 100 µM | GI50 (RPMI-8226 leukemia): 3.33 µM | TGI (RPMI-8226 leukemia): > 100 µM | GI50 (HT29 colon): 61.9 µM | TGI (HT29 colon): > 100 µM | GI50 (UACC-257 melanoma): 37.2 µM | TGI (UACC-257 melanoma): > 100 µM | GI50 (OVCAR-8 ovarian): 38.5 µM | TGI (OVCAR-8 ovarian): > 100 µM | GI50 (MALME-3M melanoma): 9.72 µM | TGI (MALME-3M melanoma): 81.1 µM | GI50 (HCT-116 colon): 4.31 µM | TGI (HCT-116 colon): > 100 µM | GI50 (U251 CNS): 5.14 µM | TGI (U251 CNS): > 100 µM | GI50 (SK-MEL-28 melanoma): > 100 µM | TGI (SK-MEL-28 melanoma): > 100 µM | GI50 (ACHN renal): 1.18 µM | TGI (ACHN renal): 36.8 µM | GI50 (SNB-19 CNS): 33.3 µM | TGI (SNB-19 CNS): > 100 µM | GI50 (DU-145 prostate): 24.5 µM | TGI (DU-145 prostate): > 100 µM | GI50 (HCC-2998 colon): 59.7 µM | TGI (HCC-2998 colon): > 100 µM | GI50 (HOP-62 NSCLC): 20.7 µM | TGI (HOP-62 NSCLC): > 100 µM | GI50 (TK-10 renal): > 100 µM | TGI (TK-10 renal): > 100 µM | GI50 (PC-3 prostate): 59 µM | TGI (PC-3 prostate): > 100 µM | GI50 (HS 578T breast): > 100 µM | TGI (HS 578T breast): > 100 µM | GI50 (MOLT-4 leukemia): 0.461 µM | TGI (MOLT-4 leukemia): > 100 µM | GI50 (COLO 205 colon): > 100 µM | TGI (COLO 205 colon): > 100 µM | GI50 (SF-539 CNS): 10.4 µM | TGI (SF-539 CNS): > 100 µM | GI50 (SK-MEL-2 melanoma): > 100 µM | TGI (SK-MEL-2 melanoma): > 100 µM
